Measured values published in article PMC9236245, “Glycyrrhiza uralensis promote the metabolism of toxic components of Aconitum carmichaeli by CYP3A and alleviate the development of chronic heart failure” (PLoS ONE, 2022).
Several values for one entry are separate records, joined by “and”; a condition that tells them apart may be missing. Equal entries are not always repeated.

Experiments:
[1] = Plasma concentration of AC, MA and HA in rats by LC-MS/MS; format: in vivo, rat; design: Plasma concentration: unit not given here; settings: for plasma concentration with compatibility of Glycyrrhizae and Aconitum vs Aconitum alone: 2 mL/kg by gavage; for Plasma concentration: single animals
Method: 12 SD rats were randomly divided into Aconitum and Glycyrrhizae combind with Aconitum group, 6 rats in each group, 2 mL / kg was given by gavage respectively.

[2] = Metabolism of AC, MA and HA in rat liver microsomes by HPLC; format: in vitro ADME; settings: NADPH
Method: Agilent C18 column (4.60 mm × 150 mm, 5μm), mobile phase A was 20 mmol / L ammonium acetate and 0.1% formic acid aqueous solution, mobile phase B was methanol, isocratic elution, A: B = 60:40, flow rate was 1 ml / min, detection wavelength was 240 nm, column temperature was 30°C, injection volume was 20 μL.
(§1) 1 mg / ML microsome 100 μL, PBS 75 μL and aconitine alkaloids 5 μL (AC, MA and HA: 1 mmol / L) were added. 20 μL NADPH (10 mmol / L) was added to start the reactionand, AC and HA were incubated for 90 min, MA were incubated for 120 min. The reaction was terminated by adding 200 μL glacial acetonitrile, 12 000 r / min at 4°C for 10 min, and 20 μL supernatant was used for HPLC.

[3] = Metabolic stability (t1/2, CLint) of AC, MA and HA in RLMs of pretreated rats; settings: for microsomal CLint at 25 µM / half-life at 25 µM: SD, rat, microsomes
[4] = in vitro; settings: SD, rat, microsomes
[5] = test system: CYP450; test: Effect of CYP450 inhibitors on metabolism of AC, MA and HA in rat liver microsomes; format: in vitro ADME; settings: RLMs
Method: as §1
Added microsome 100 μL, PBS 75 μL, aconitine alkaloids 5 μL, inhibitors (furatheophylline: 0.2 mmol / L, sulfabendazole: 0.4 mmol / L, quinidine: 0.1 mmol / L, ketoconazole: 0.04 mmol / L) 10 μL. The operation of HPLC was as above. The effect of CYP450 inhibitors on the metabolism of Aconitum alkaloids was calculated. The formula is as follows:
% inhibition = Peak area of X after adding inhibitor / Peak area of X before adding inhibitor × 100%, where X is metabolites of AC, MA and HA.

[6] = Aconitum 2 mL/kg gavage, 10 min
[7] = Aconitum 2 mL/kg gavage, 20 min
[8] = Aconitum 2 mL/kg gavage, 30 min
[9] = Aconitum 2 mL/kg gavage, 45 min
[10] = Aconitum 2 mL/kg gavage, 60 min
[11] = Aconitum 2 mL/kg gavage, 90 min
[12] = Aconitum 2 mL/kg gavage, 120 min
[13] = Aconitum 2 mL/kg gavage, 240 min
[14] = Aconitum 2 mL/kg gavage, 360 min
[15] = Aconitum 2 mL/kg gavage, 480 min
[16] = Glycyrrhizae + Aconitum 2 mL/kg gavage, 10 min
[17] = Glycyrrhizae + Aconitum 2 mL/kg gavage, 20 min
[18] = Glycyrrhizae + Aconitum 2 mL/kg gavage, 30 min
[19] = Glycyrrhizae + Aconitum 2 mL/kg gavage, 45 min
[20] = Glycyrrhizae + Aconitum 2 mL/kg gavage, 60 min
[21] = Glycyrrhizae + Aconitum 2 mL/kg gavage, 90 min
[22] = Glycyrrhizae + Aconitum 2 mL/kg gavage, 120 min
[23] = Glycyrrhizae + Aconitum 2 mL/kg gavage, 240 min
[24] = Glycyrrhizae + Aconitum 2 mL/kg gavage, 360 min
[25] = Glycyrrhizae + Aconitum 2 mL/kg gavage, 480 min
[26] = RLMs of rats pretreated with Glycyrrhizae 0.33 g/kg
[27] = RLMs of rats pretreated with Glycyrrhizae 1 g/kg
[28] = RLMs of rats pretreated with Glycyrrhizae 3 g/kg
[29] = RLMs of rats pretreated with Phenobarbital 0.08 g/kg
[30] = t1/2, RLMs of rats pretreated with Glycyrrhizae 0.33 g/kg
[31] = t1/2, RLMs of rats pretreated with Glycyrrhizae 1 g/kg
[32] = t1/2, RLMs of rats pretreated with Glycyrrhizae 3 g/kg
[33] = t1/2, RLMs of rats pretreated with Phenobarbital 0.08 g/kg
[34] = AC 90 min, ketoconazole stock 0.04 mmol/L
[35] = MA 120 min, ketoconazole stock 0.04 mmol/L

| SMILES | plasma concentration with compatibility of Glycyrrhizae and Aconitum vs Aconitum alone [1] | Plasma concentration [1, 6] | Plasma concentration [1, 7] | Plasma concentration [1, 8] | Plasma concentration [1, 9] | Plasma concentration [1, 10] | Plasma concentration [1, 11] | Plasma concentration [1, 12] | Plasma concentration [1, 13] | Plasma concentration [1, 14] | Plasma concentration [1, 15] | Plasma concentration [1, 16] | Plasma concentration [1, 17] | Plasma concentration [1, 18] | Plasma concentration [1, 19] | Plasma concentration [1, 20] | Plasma concentration [1, 21] | Plasma concentration [1, 22] | Plasma concentration [1, 23] | Plasma concentration [1, 24] | further results |
| --- | --- | --- | --- | --- | --- | --- | --- | --- | --- | --- | --- | --- | --- | --- | --- | --- | --- | --- | --- | --- | --- |
| CCN1C[C@]2(COC)[C@H](O)C[C@H](OC)[C@@]34[C@@H]5C[C@@]6(O)[C@H](OC(=O)c7ccccc7)[C@@H]5[C@@](OC(C)=O)([C@@H]([C@H](OC)[C@H]23)[C@@H]14)[C@@H](O)[C@@H]6OC [AC, aconitine] | significantly lower | 0.0562 and 0.0808 and 0.0292 and 0.0385 and 0.0141 | 0.0945 and 0.121 and 0.0589 and 0.0443 and 0.0407 | 0.0925 and 0.117 and 0.0557 and 0.0722 and 0.05 | 0.118 and 0.156 and 0.082 and 0.0566 and 0.0273 | 0.13 and 0.176 and 0.0973 and 0.0545 and 0.0474 | 0.143 and 0.138 and 0.108 and 0.0529 and 0.0439 | 0.0793 and 0.127 and 0.0603 and 0.0355 and 0.024 | 0.0629 and 0.0516 and 0.0251 and 0.0305 and 0.0211 | 0.0287 and 0.0253 and 0.00749 and 0.0187 and 0.0173 | 0.0164 and 0.00823 and 0.0095 and 0.00724 and 0.00602 | 0.0175 and 0.0293 and 0.0191 and 0.0122 and 0.0147 | 0.0115 and 0.059 and 0.0448 and 0.017 and 0.0239 | 0.0218 and 0.0596 and 0.0401 and 0.018 and 0.0426 | 0.0355 and 0.0389 and 0.0637 and 0.0227 and 0.0397 | 0.0309 and 0.0518 and 0.0337 and 0.0343 and 0.0443 | 0.018 and 0.039 and 0.0371 and 0.0238 and 0.0457 | 0.0163 and 0.0373 and 0.0236 and 0.0131 and 0.0446 | 0.00197 and 0.0253 and 0.00871 and 0.00772 and 0.0267 | 0.00413 and 0.00482 and 0 and 0.00225 and 0.0062 | Plasma concentration [1, 25]: 0 (4×) and 0.00207; metabolites produced in RLMs [2]: three metabolites (A1-A3); microsomal CLint at 25 µM ([3]; RLMs of Control rats): 10.8 ± 0.4 µL/min/mg; microsomal CLint at 25 µM [3, 26]: 14.7 ± 0.23 µL/min/mg; microsomal CLint at 25 µM [3, 27]: 15.5 ± 0.46 µL/min/mg; microsomal CLint at 25 µM [3, 28]: 11.6 ± 0.4 µL/min/mg; microsomal CLint at 25 µM [3, 29]: 16.3 ± 0.61 µL/min/mg; half-life at 25 µM ([3]; t1/2, RLMs of Control rats): 4.28 ± 0.159 h; half-life at 25 µM [3, 30]: 3.15 ± 0.05 h; half-life at 25 µM [3, 31]: 2.99 ± 0.0877 h; half-life at 25 µM [3, 32]: 3.99 ± 0.138 h; half-life at 25 µM [3, 33]: 2.84 ± 0.108 h |
| COC[C@@]12CC[C@H](OC)[C@]34C(C([C@H](OC)[C@H]13)[C@]1(OC(C)=O)[C@H]3[C@@H](OC(=O)c5ccccc5)[C@](O)(C[C@H]34)[C@@H](OC)[C@@H]1O)N(C)C2 [HA, hypaconitine] | significantly lower | 0.964 and 1.77 and 0.583 and 0.492 and 0.28 | 1.07 (2×) and 1.95 and 0.668 and 0.566 | 1.2 and 2.66 and 1.06 and 0.923 and 0.551 | 1.22 and 2.65 and 1.35 and 0.88 and 0.451 | 1.83 and 3.39 and 1.29 and 0.737 and 0.573 | 2.02 and 2.54 and 1.07 and 0.724 and 0.474 | 1.44 and 2.32 and 0.775 and 0.501 and 0.434 | 0.658 and 0.936 and 0.168 and 0.375 and 0.151 | 0.287 and 0.417 and 0.0407 and 0.175 and 0.0302 | 0.104 and 0.179 and 0.00087 and 0.0398 and 0 | 0.519 and 1.06 and 0.945 and 0.416 and 0.07 | 0.52 and 1.66 and 1.4 and 0.661 and 0.18 | 0.774 and 1.59 and 1.79 and 1.06 and 0.53 | 1.02 and 1.61 and 1.74 and 0.809 and 0.75 | 1.15 and 1.58 and 1.52 and 0.84 and 0.77 | 0.845 and 1.4 and 1.33 and 0.925 and 0.66 | 0.763 and 1.16 and 1.07 and 0.744 and 0.75 | 0.288 and 0.492 and 0.287 and 0.316 and 0.924 | 0.34 and 0.239 and 0.0767 and 0.225 and 0.0462 | microsomal CLint ([4]; RLMs of Control rats): 10.5 ± 0.23 µL/min/mg; microsomal CLint [4, 26]: 12.1 ± 0.23 µL/min/mg; microsomal CLint [4, 27]: 13.6 ± 0.4 µL/min/mg; microsomal CLint [4, 28]: 11.6 ± 0.4 µL/min/mg; microsomal CLint [4, 29]: 14 ± 0.4 µL/min/mg; half-life ([4]; t1/2, RLMs of Control rats): 4.39 ± 0.095 h; half-life [4, 30]: 3.81 ± 0.0717 h; half-life [4, 31]: 3.4 ± 0.1 h; half-life [4, 32]: 3.99 ± 0.138 h; half-life [4, 33]: 3.3 ± 0.0943 h; Plasma concentration [1, 25]: 0 and 0.104 and 0.0428 and 0.0921 and 0.181; metabolites produced in RLMs [2]: two metabolites |
| COC[C@]12CN(C)[C@@H]3[C@@H]4[C@H](OC)[C@H]1[C@@]3([C@@H](OC)C[C@H]2O)[C@@H]1C[C@@]2(O)[C@H](OC(=O)c3ccccc3)[C@@H]1[C@]4(OC(C)=O)[C@@H](O)[C@@H]2OC [MA, mesaconitine] | significantly lower | 0.104 and 0.259 and 0.0838 and 0.0908 and 0.0264 | 0.112 and 0.306 and 0.0799 and 0.129 and 0.0672 | 0.141 (2×) and 0.315 and 0.127 and 0.051 | 0.131 and 0.358 and 0.138 and 0.0993 and 0.054 | 0.209 and 0.452 and 0.123 and 0.0971 and 0.0527 | 0.212 and 0.258 and 0.0872 and 0.0822 and 0.0482 | 0.151 and 0.279 and 0.0558 and 0.0592 and 0.0337 | 0.067 and 0.0621 and 0.0139 and 0.0294 and 0.00782 | 0.0249 and 0.0364 and 0 (2×) and 0.0208 | 0.00513 and 0 (4×) | 0.0924 and 0.061 and 0.0433 and 0.0157 and 0.04 | 0.0183 and 0.062 and 0.0517 and 0.0185 and 0.0482 | 0.0382 and 0.0796 and 0.0589 and 0.0258 and 0.0568 | 0.0446 and 0.0702 and 0.0601 and 0.0125 and 0.0651 | 0.0304 and 0.0692 and 0.0418 and 0.0207 and 0.0668 | 0.038 and 0.0469 and 0.0364 and 0.0228 and 0.0572 | 0.0276 and 0.0368 and 0.0358 and 0.0326 and 0.0683 | 0.00794 and 0.0109 and 0.0106 and 0.00771 and 0.0278 | 0.00417 and 0.00296 and 0 and 0.0025 and 0.0106 | Plasma concentration [1, 25]: 0; CLint ([3]; RLMs of Control rats): 16.00±0.40 μL/min/mg protein; t1/2 ([3]; RLMs of Control rats): 2.8887 ± 0.0722 h; CLint [3, 26]: 17.73±0.23 μL/min/mg protein; t1/2 [3, 26]: 2.6055 ± 0.0337 h; CLint [3, 27]: 18.80±0.04 μL/min/mg protein; t1/2 [3, 27]: 2.4582 ± 0.0522 h; CLint [3, 28]: 17.87±0.83 μL/min/mg protein; t1/2 [3, 28]: 2.5895 ± 0.118 h; CLint [3, 29]: 19.60±0.40 μL/min/mg protein; t1/2 [3, 29]: 2.358 ± 0.048 h |
| Cc1nc2c([nH]1)c(=O)n(C)c(=O)n2Cc1ccco1 [furaphylline] |  |  |  |  |  |  |  |  |  |  |  |  |  |  |  |  |  |  |  |  | effect on the metabolism of AC, MA and HA ([5]; stock 0.2 mmol/L): no significant effect |
| CC(=O)N1CCN(c2ccc(OCC3COC(Cn4ccnc4)(c4ccc(Cl)cc4Cl)O3)cc2)CC1 (centres unmarked) [ketoconazole] |  |  |  |  |  |  |  |  |  |  |  |  |  |  |  |  |  |  |  |  | production of AC metabolite A1, difference vs control [5, 34]: -0.2416 ± 0.0644; production of AC metabolite A2, difference vs control [5, 34]: -0.4708 ± 0.02905; production of AC metabolite A3, difference vs control [5, 34]: -0.4643 ± 0.06743; production of HA metabolite H2, difference vs control ([5]; HA 90 min): -0.4161 ± 0.01634; production of HA metabolite H1, difference vs control ([5]; HA 90 min, ketoconazole stock 0.04 mmol/L): -0.4482 ± 0.05543; production of MA metabolite M1, difference vs control [5, 35]: -0.4085 ± 0.07279; production of MA metabolite M2, difference vs control [5, 35]: -0.3312 ± 0.06126; production of MA metabolite M3, difference vs control [5, 35]: -0.3905 ± 0.01824 |
